Results from ChEMBL document CHEMBL3885881, “DrugMatrix”.

Species: Rattus norvegicus
Assay: DrugMatrix - Regimen: Daily Repeat
Assay type: toxicity, organism-based, Sprague-Dawley
Design: regimen Daily Repeat, gender Male, age 6-8 weeks
Settings: in vivo, po, route oral GAVAGE, vehicle .5 % CMC; for BASOPHIL / EOSINOPHIL / ERYTHROCYTE COUNT / HEMATOCRIT / HEMOGLOBIN / LEUKOCYTE COUNT / LYMPHOCYTE / MEAN CORPUSCULAR HEMOGLOBIN / MEAN CORPUSCULAR HEMOGLOBIN CONCENTRATION / MEAN CORPUSCULAR VOLUME / MONOCYTE / NEUTROPHIL / PLATELET COUNT: tissue Blood; for ALANINE AMINOTRANSFERASE / ALBUMIN / ALKALINE PHOSPHATASE / ASPARTATE AMINOTRANSFERASE / BLOOD UREA NITROGEN / CHLORIDE / CHOLESTEROL / CREATINE PHOSPHOKINASE / CREATININE / GLUCOSE / PHOSPHORUS / POTASSIUM / SODIUM / TOTAL BILIRUBIN / TOTAL PROTEIN: tissue Plasma
[1] = 0 mg/kg, 72 h, dose level Control, time 3 day
[2] = 0 mg/kg, 120 h, dose level Control, time 5 day
[3] = 300 mg/kg, 72 h, dose level Low, time 3 day
[4] = 300 mg/kg, 120 h, dose level Low, time 5 day
[5] = 1500 mg/kg, 72 h, dose level High, time 3 day
[6] = 1500 mg/kg, 120 h, dose level High, time 5 day

SMILES: O=C1CCc2cc(OCCCCc3nnnn3C3CCCCC3)ccc2N1 [CILOSTAZOL]
- BASOPHIL [1]: 0.68%
- EOSINOPHIL [1]: 0.46%
- ERYTHROCYTE COUNT [1]: 7.15 x10E6/uL
- HEMATOCRIT [1]: 45.44%
- HEMOGLOBIN [1]: 14.1 G/DL
- LEUKOCYTE COUNT [1]: 9.78 x10E3/uL
- LYMPHOCYTE [1]: 84.44%
- MEAN CORPUSCULAR HEMOGLOBIN [1]: 19.72 pg
- MEAN CORPUSCULAR HEMOGLOBIN CONCENTRATION [1]: 31 G/DL
- MEAN CORPUSCULAR VOLUME [1]: 63.66 fL
- MONOCYTE [1]: 2.14%
- NEUTROPHIL [1]: 11.16%
- PLATELET COUNT [1]: 1378.2 x10E3/uL
- ALANINE AMINOTRANSFERASE [1]: 42.33 u/L
- ALBUMIN [1]: 3.8 G/DL
- ALKALINE PHOSPHATASE [1]: 388.17 u/L
- ASPARTATE AMINOTRANSFERASE [1]: 68 u/L
- BLOOD UREA NITROGEN [1]: 16.17 mg/dL
- CHLORIDE [1]: 96.67 MEQ/L
- CHOLESTEROL [1]: 71 mg/dL
- CREATINE PHOSPHOKINASE [1]: 156.17 u/L
- CREATININE [1]: 0.57 mg/dL
- GLUCOSE [1]: 193.67 mg/dL
- PHOSPHORUS [1]: 11.43 mg/dL
- POTASSIUM [1]: 7 MEQ/L
- SODIUM [1]: 140.33 MEQ/L
- TOTAL BILIRUBIN [1]: 0.48 mg/dL
- TOTAL PROTEIN [1]: 6.8 G/DL
- BASOPHIL [2]: 1.47%
- EOSINOPHIL [2]: 1%
- ERYTHROCYTE COUNT [2]: 7.12 x10E6/uL
- HEMATOCRIT [2]: 45.47%
- HEMOGLOBIN [2]: 14.1 G/DL
- LEUKOCYTE COUNT [2]: 11.38 x10E3/uL
- LYMPHOCYTE [2]: 82.57%
- MEAN CORPUSCULAR HEMOGLOBIN [2]: 19.82 pg
- MEAN CORPUSCULAR HEMOGLOBIN CONCENTRATION [2]: 31.02 G/DL
- MEAN CORPUSCULAR VOLUME [2]: 63.88 fL
- MONOCYTE [2]: 2.2%
- NEUTROPHIL [2]: 11.97%
- PLATELET COUNT [2]: 1267 x10E3/uL
- ALANINE AMINOTRANSFERASE [2]: 38 u/L
- ALBUMIN [2]: 3.72 G/DL
- ALKALINE PHOSPHATASE [2]: 391 u/L
- ASPARTATE AMINOTRANSFERASE [2]: 65.83 u/L
- BLOOD UREA NITROGEN [2]: 14.17 mg/dL
- CHLORIDE [2]: 107.67 MEQ/L
- CHOLESTEROL [2]: 61 mg/dL
- CREATINE PHOSPHOKINASE [2]: 148.33 u/L
- CREATININE [2]: 0.57 mg/dL
- GLUCOSE [2]: 177.17 mg/dL
- PHOSPHORUS [2]: 12.07 mg/dL
- POTASSIUM [2]: 7.2 MEQ/L
- SODIUM [2]: 151.5 MEQ/L
- TOTAL BILIRUBIN [2]: 0.58 mg/dL
- TOTAL PROTEIN [2]: 6.72 G/DL
- BASOPHIL [3]: 0.4%
- EOSINOPHIL [3]: 0.5%
- ERYTHROCYTE COUNT [3]: 6.67 x10E6/uL
- HEMATOCRIT [3]: 43%
- HEMOGLOBIN [3]: 13.6 G/DL
- LEUKOCYTE COUNT [3]: 12.31 x10E3/uL
- LYMPHOCYTE [3]: 81.4%
- MEAN CORPUSCULAR HEMOGLOBIN [3]: 20.4 pg
- MEAN CORPUSCULAR HEMOGLOBIN CONCENTRATION [3]: 31.6 G/DL
- MEAN CORPUSCULAR VOLUME [3]: 64.55 fL
- MONOCYTE [3]: 2.4%
- NEUTROPHIL [3]: 14%
- PLATELET COUNT [3]: 1378 x10E3/uL
- ALANINE AMINOTRANSFERASE [3]: 40.67 u/L
- ALBUMIN [3]: 3.6 G/DL
- ALKALINE PHOSPHATASE [3]: 331.33 u/L
- ASPARTATE AMINOTRANSFERASE [3]: 59 u/L
- BLOOD UREA NITROGEN [3]: 14.67 mg/dL
- CHLORIDE [3]: 96 MEQ/L
- CHOLESTEROL [3]: 75.33 mg/dL
- CREATINE PHOSPHOKINASE [3]: 120.33 u/L
- CREATININE [3]: 0.53 mg/dL
- GLUCOSE [3]: 178.33 mg/dL
- PHOSPHORUS [3]: 11.33 mg/dL
- POTASSIUM [3]: 6.4 MEQ/L
- SODIUM [3]: 141 MEQ/L
- TOTAL BILIRUBIN [3]: 0.33 mg/dL
- TOTAL PROTEIN [3]: 6.43 G/DL
- BASOPHIL [4]: 1.17%
- EOSINOPHIL [4]: 0.37%
- ERYTHROCYTE COUNT [4]: 7.17 x10E6/uL
- HEMATOCRIT [4]: 46.5%
- HEMOGLOBIN [4]: 14.43 G/DL
- LEUKOCYTE COUNT [4]: 13.79 x10E3/uL
- LYMPHOCYTE [4]: 85.57%
- MEAN CORPUSCULAR HEMOGLOBIN [4]: 20.2 pg
- MEAN CORPUSCULAR HEMOGLOBIN CONCENTRATION [4]: 31.07 G/DL
- MEAN CORPUSCULAR VOLUME [4]: 64.9 fL
- MONOCYTE [4]: 2.3%
- NEUTROPHIL [4]: 9.6%
- PLATELET COUNT [4]: 1545 x10E3/uL
- ALANINE AMINOTRANSFERASE [4]: 41 u/L
- ALBUMIN [4]: 3.77 G/DL
- ALKALINE PHOSPHATASE [4]: 365.67 u/L
- ASPARTATE AMINOTRANSFERASE [4]: 63 u/L
- BLOOD UREA NITROGEN [4]: 14.67 mg/dL
- CHLORIDE [4]: 106.67 MEQ/L
- CHOLESTEROL [4]: 67.33 mg/dL
- CREATINE PHOSPHOKINASE [4]: 135 u/L
- CREATININE [4]: 0.67 mg/dL
- GLUCOSE [4]: 167 mg/dL
- PHOSPHORUS [4]: 12.53 mg/dL
- POTASSIUM [4]: 7.53 MEQ/L
- SODIUM [4]: 151.33 MEQ/L
- TOTAL BILIRUBIN [4]: 0.43 mg/dL
- TOTAL PROTEIN [4]: 6.77 G/DL
- BASOPHIL [5]: 0.53%
- EOSINOPHIL [5]: 0.27%
- ERYTHROCYTE COUNT [5]: 6.95 x10E6/uL
- HEMATOCRIT [5]: 45.23%
- HEMOGLOBIN [5]: 14.2 G/DL
- LEUKOCYTE COUNT [5]: 13.97 x10E3/uL
- LYMPHOCYTE [5]: 82.9%
- MEAN CORPUSCULAR HEMOGLOBIN [5]: 20.43 pg
- MEAN CORPUSCULAR HEMOGLOBIN CONCENTRATION [5]: 31.4 G/DL
- MEAN CORPUSCULAR VOLUME [5]: 65.13 fL
- MONOCYTE [5]: 2.43%
- NEUTROPHIL [5]: 13.1%
- PLATELET COUNT [5]: 1348.33 x10E3/uL
- ALANINE AMINOTRANSFERASE [5]: 34.67 u/L
- ALBUMIN [5]: 3.77 G/DL
- ALKALINE PHOSPHATASE [5]: 340.33 u/L
- ASPARTATE AMINOTRANSFERASE [5]: 60.33 u/L
- BLOOD UREA NITROGEN [5]: 12 mg/dL
- CHLORIDE [5]: 95 MEQ/L
- CHOLESTEROL [5]: 65.33 mg/dL
- CREATINE PHOSPHOKINASE [5]: 141 u/L
- CREATININE [5]: 0.5 mg/dL
- GLUCOSE [5]: 178.33 mg/dL
- PHOSPHORUS [5]: 11.9 mg/dL
- POTASSIUM [5]: 6.77 MEQ/L
- SODIUM [5]: 140.33 MEQ/L
- TOTAL BILIRUBIN [5]: 0.43 mg/dL
- TOTAL PROTEIN [5]: 6.67 G/DL
- BASOPHIL [6]: 0.83%
- EOSINOPHIL [6]: 0.37%
- ERYTHROCYTE COUNT [6]: 7 x10E6/uL
- HEMATOCRIT [6]: 45.1%
- HEMOGLOBIN [6]: 13.87 G/DL
- LEUKOCYTE COUNT [6]: 10.98 x10E3/uL
- LYMPHOCYTE [6]: 80.03%
- MEAN CORPUSCULAR HEMOGLOBIN [6]: 19.8 pg
- MEAN CORPUSCULAR HEMOGLOBIN CONCENTRATION [6]: 30.67 G/DL
- MEAN CORPUSCULAR VOLUME [6]: 64.47 fL
- MONOCYTE [6]: 2.53%
- NEUTROPHIL [6]: 15.27%
- PLATELET COUNT [6]: 1161 x10E3/uL
- ALANINE AMINOTRANSFERASE [6]: 45 u/L
- ALBUMIN [6]: 3.67 G/DL
- ALKALINE PHOSPHATASE [6]: 377 u/L
- ASPARTATE AMINOTRANSFERASE [6]: 66.33 u/L
- BLOOD UREA NITROGEN [6]: 12 mg/dL
- CHLORIDE [6]: 106.67 MEQ/L
- CHOLESTEROL [6]: 66.67 mg/dL
- CREATINE PHOSPHOKINASE [6]: 130 u/L
- CREATININE [6]: 0.6 mg/dL
- GLUCOSE [6]: 184.33 mg/dL
- PHOSPHORUS [6]: 12.83 mg/dL
- POTASSIUM [6]: 7.27 MEQ/L
- SODIUM [6]: 151.33 MEQ/L
- TOTAL BILIRUBIN [6]: 0.4 mg/dL
- TOTAL PROTEIN [6]: 6.6 G/DL
